Laboratory results reported in ChEMBL document CHEMBL5727484, “Compounds and methods for inhibiting NHE-mediated antiport in the treatment of disorders associated with fluid retention or salt overload and gastrointestinal tract disorders” (2020).

Experiment: Cell-Based Assay of NHE-3 Activity: Rat NHE-3-mediated Na+-dependent H+ antiport was measured using a modification of the pH sensitive dye method originally reported by Tsien (Proc. Natl. Acad. Sci. USA. (1984) 81(23): 7436-7440). Opossum kidney (OK) cells were obtained from the ATCC and propagated per their instructions. The rat NHE-3 gene was introduced into OK cells via electroporation, seeded into 96 well plates and grown overnight. Medium was aspirated from the wells, cells were washed twice with NaCl-HEPES buffer (100 mM NaCl, 50 mM HEPES, 10 mM glucose, 5 mM KCl, 2 mM CaCl2, 1 mM MgCl2, pH 7.4), then incubated for 30 min at room temperature with NH4Cl-HEPES buffer (20 mM NH4Cl, 80 mM NaCl, 50 mM HEPES, 5 mM KCl, 2 mM CaCl2, 1 mM MgCl2, pH 7.4) containing 5 uM BCECF-AM (Invitrogen). Cells were washed twice with Ammonium free, Na+-free HEPES (100 mM choline, 50 mM HEPES, 10 mM glucose, 5 mM KCl, 2 mM CaCl2, 1 mM MgCl2, pH 7.4) and incubated in the same buffer for 10 minutes at room temperature to lower intracellular pH. […] Initial rates were plotted as the average 3-6 replicates, and pIC50 values were estimated using GraphPad Prism.

Compound	IC50
CN1Cc2c(Cl)cc(Cl)cc2C(c2cccc(S(=O)(=O)NCCOCCOCCOCCNC(=O)CCCCCCC(=O)NCCOCCOCCOCCNS(=O)(=O)c3cccc(C4CN(C)Cc5c(Cl)cc(Cl)cc54)c3)c2)C1 (stereo not given)	in the range around 316 nM
CN1Cc2c(Cl)cc(Cl)cc2C(c2cccc(S(=O)(=O)NCCOCCOCCNC(=O)NCCCCNC(=O)NCCOCCOCCNS(=O)(=O)c3cccc(C4CN(C)Cc5c(Cl)cc(Cl)cc54)c3)c2)C1 (stereo not given)	< 100 nM
CN1Cc2c(Cl)cc(Cl)cc2C(c2cccc(S(=O)(=O)NCCOCCOCCOCCNC(=O)c3ccccc3C(=O)NCCOCCOCCOCCNS(=O)(=O)c3cccc(C4CN(C)Cc5c(Cl)cc(Cl)cc54)c3)c2)C1 (stereo not given)	< 100 nM
CN1Cc2c(Cl)cc(Cl)cc2C(c2ccc(S(=O)(=O)NCCOCCOCCNC(=O)[C@H](O)[C@@H](O)C(=O)NCCOCCOCCNS(=O)(=O)c3ccc(C4CN(C)Cc5c(Cl)cc(Cl)cc54)cc3)cc2)C1 (stereo not given in full)	in the range around 316 nM
CN1Cc2c(Cl)cc(Cl)cc2C(c2cccc(S(=O)(=O)NCCOCCOCCNC(=O)c3ccc(C(=O)NCCOCCOCCNS(=O)(=O)c4cccc(C5CN(C)Cc6c(Cl)cc(Cl)cc65)c4)cc3)c2)C1 (stereo not given)	in the range around 3160 nM
CN1Cc2c(Cl)cc(Cl)cc2C(c2cccc(S(=O)(=O)NCCOCCOCCOCCNC(=O)NCCOCCOCCOCCNS(=O)(=O)c3cccc(C4CN(C)Cc5c(Cl)cc(Cl)cc54)c3)c2)C1 (stereo not given)	in the range around 316 nM
CN1Cc2c(Cl)cc(Cl)cc2C(c2cccc(S(=O)(=O)NCCOCCOCCNC(=O)Nc3ccc(NC(=O)NCCOCCOCCNS(=O)(=O)c4cccc(C5CN(C)Cc6c(Cl)cc(Cl)cc65)c4)cc3)c2)C1 (stereo not given)	< 100 nM
CN1Cc2c(Cl)cc(Cl)cc2C(c2cccc(S(=O)(=O)NCCOCCOCCNC(=O)COCC(=O)NCCOCCOCCNS(=O)(=O)c3cccc(C4CN(C)Cc5c(Cl)cc(Cl)cc54)c3)c2)C1 (stereo not given)	< 100 nM
CN1Cc2c(Cl)cc(Cl)cc2C(c2ccc(S(=O)(=O)NCCOCCOCCOCCNC(=O)c3ccc(C(=O)NCCOCCOCCOCCNS(=O)(=O)c4ccc(C5CN(C)Cc6c(Cl)cc(Cl)cc65)cc4)cc3)cc2)C1 (stereo not given)	< 10000 nM
CN1Cc2c(Cl)cc(Cl)cc2C(c2cccc(S(=O)(=O)NCCOCCOCCNC(=O)C(C)(C)C(=O)NCCOCCOCCNS(=O)(=O)c3cccc(C4CN(C)Cc5c(Cl)cc(Cl)cc54)c3)c2)C1 (stereo not given)	in the range around 3160 nM
NC(N)=NCCCN1CCN(c2cccc(-c3nc(N=C(N)N)nc4ccc(Cl)cc34)c2)CC1	in the range around 316 nM
CN1Cc2c(Cl)cc(Cl)cc2C(c2cccc(S(=O)(=O)NCCOCCOCCNC(=O)NCCOCCOCCNS(=O)(=O)c3cccc(C4CN(C)Cc5c(Cl)cc(Cl)cc54)c3)c2)C1 (stereo not given)	< 10000 nM
CN1Cc2c(Cl)cc(Cl)cc2C(c2cccc(S(=O)(=O)NCCOCCOCCOCCOCCOCCOCCOCCOCCOCCOCCNC(=O)CCOCCOCCOCCOCCOCCOCCOCCOCCOCCC(=O)NCCOCCOCCOCCOCCOCCOCCOCCOCCOCCOCCNS(=O)(=O)c3cccc(C4CN(C)Cc5c(Cl)cc(Cl)cc54)c3)c2)C1 (stereo not given)	in the range around 316 nM
CN1Cc2c(Cl)cc(Cl)cc2C(c2cccc(S(=O)(=O)NCCOCCOCCOCCNC(=O)c3cc(C(=O)NCCOCCOCCOCCNS(=O)(=O)c4cccc(C5CN(C)Cc6c(Cl)cc(Cl)cc65)c4)cc(C(=O)NCCOCCOCCOCCNS(=O)(=O)c4cccc(C5CN(C)Cc6c(Cl)cc(Cl)cc65)c4)c3)c2)C1 (stereo not given)	< 100 nM
C/C(=C\c1cc(F)c(Oc2ccc(S(=O)(=O)NCCCP(=O)(O)O)cc2)c(F)c1)C(=O)N=C(N)N	in the range around 3160 nM
NC(N)=Nc1nc(-c2cccc(N3CCN(CCO)CC3)c2)c2cc(Cl)ccc2n1	in the range around 316 nM
CN1Cc2c(Cl)cc(Cl)cc2C(c2cccc(S(=O)(=O)NCCOCCOCCNC(=O)CCC(=O)NCCOCCOCCNS(=O)(=O)c3cccc(C4CN(C)Cc5c(Cl)cc(Cl)cc54)c3)c2)C1 (stereo not given)	< 100 nM
C/C(=C\c1cc(F)c(Oc2ccc(S(=O)(=O)NCCOCCOCCOCCN)cc2)c(F)c1)C(=O)N=C(N)N	in the range around 316 nM
N=C(N)N1CCN(c2ccc(-c3nc(N=C(N)N)nc4ccc(Cl)cc34)cc2)CC1	in the range around 316 nM
CN1Cc2c(Cl)cc(Cl)cc2C(c2ccc(S(=O)(=O)NCCOCCOCCNC(=O)C(O)C(O)C(=O)NCCOCCOCCNS(=O)(=O)c3ccc(C4CN(C)Cc5c(Cl)cc(Cl)cc54)cc3)cc2)C1 (stereo not given)	< 100 nM
CN1Cc2c(Cl)cc(Cl)cc2C(c2cccc(S(=O)(=O)NCCOCCOCCOCCNC(=O)c3cccc(C(=O)NCCOCCOCCOCCNS(=O)(=O)c4cccc(C5CN(C)Cc6c(Cl)cc(Cl)cc65)c4)c3)c2)C1 (stereo not given)	in the range around 316 nM
C/C(=C\c1cc(F)c(Oc2ccc(S(=O)(=O)NCCOCCOCCOCCNC(=O)CCCCCCC(=O)NCCOCCOCCOCCNS(=O)(=O)c3ccc(Oc4c(F)cc(/C=C(\C)C(=O)N=C(N)N)cc4F)cc3)cc2)c(F)c1)C(=O)N=C(N)N	< 100 nM
CN1Cc2c(Cl)cc(Cl)cc2C(c2cccc(S(=O)(=O)NCCOCCOCCOCCNC(=O)[C@@H](O)[C@@H](O)C(=O)NCCOCCOCCOCCNS(=O)(=O)c3cccc(C4CN(C)Cc5c(Cl)cc(Cl)cc54)c3)c2)C1 (stereo not given in full)	< 100 nM

Compound	IC50
CN1Cc2c(Cl)cc(Cl)cc2C(c2ccc(S(=O)(=O)NCCOCCOCCOCCNC(=O)C(O)C(O)C(=O)NCCOCCOCCOCCNS(=O)(=O)c3ccc(C4CN(C)Cc5c(Cl)cc(Cl)cc54)cc3)cc2)C1 (stereo not given)	< 100 nM
CN1Cc2c(Cl)cc(Cl)cc2C(c2ccc(S(=O)(=O)NCCOCCOCCNC(=O)c3ccc(C(=O)NCCOCCOCCNS(=O)(=O)c4ccc(C5CN(C)Cc6c(Cl)cc(Cl)cc65)cc4)cc3)cc2)C1 (stereo not given)	< 10000 nM
CN1Cc2c(Cl)cc(Cl)cc2C(c2ccc(S(=O)(=O)NCCOCCOCCNC(=O)NCCOCCOCCNS(=O)(=O)c3ccc(C4CN(C)Cc5c(Cl)cc(Cl)cc54)cc3)cc2)C1 (stereo not given)	< 10000 nM
NC(N)=Nc1nc(-c2ccc(N3CCN(CCO)CC3)cc2)c2cc(Cl)ccc2n1	in the range around 316 nM
C/C(=C\c1cc(F)c(Oc2ccc(S(=O)(=O)NCCOCCOCCOCCOCCOCCOCCN)cc2)c(F)c1)C(=O)N=C(N)N	in the range around 316 nM
CN1Cc2c(Cl)cc(Cl)cc2C(c2ccc(S(=O)(=O)NCCOCCOCCOCCNC(=O)NCCOCCOCCOCCNS(=O)(=O)c3ccc(C4CN(C)Cc5c(Cl)cc(Cl)cc54)cc3)cc2)C1 (stereo not given)	< 100 nM
CN1Cc2c(Cl)cc(Cl)cc2C(c2ccc(NS(=O)(=O)NCCP(=O)(O)O)cc2)C1 (stereo not given)	in the range around 3160 nM
NCCCN1CCN(c2cccc(-c3nc(N=C(N)N)nc4ccc(Cl)cc34)c2)CC1	in the range around 316 nM
CN1Cc2c(Cl)cc(Cl)cc2C(c2cccc(S(=O)(=O)NCCOCCOCCNC(=O)[C@H](O)[C@@H](O)C(=O)NCCOCCOCCNS(=O)(=O)c3cccc(C4CN(C)Cc5c(Cl)cc(Cl)cc54)c3)c2)C1 (stereo not given in full)	in the range around 316 nM
CN1Cc2c(Cl)cc(Cl)cc2C(c2cccc(S(=O)(=O)NCCOCCOCCOCCNC(=O)CN(CC(=O)NCCOCCOCCOCCNS(=O)(=O)c3cccc(C4CN(C)Cc5c(Cl)cc(Cl)cc54)c3)CC(=O)NCCOCCOCCOCCNS(=O)(=O)c3cccc(C4CN(C)Cc5c(Cl)cc(Cl)cc54)c3)c2)C1 (stereo not given)	in the range around 316 nM
CN1Cc2c(Cl)cc(Cl)cc2C(c2cccc(S(=O)(=O)NCCOCCOCCOCCNC(=O)C(O)C(O)C(=O)NCCOCCOCCOCCNS(=O)(=O)c3cccc(C4CN(C)Cc5c(Cl)cc(Cl)cc54)c3)c2)C1 (stereo not given)	< 100 nM
CN1Cc2c(Cl)cc(Cl)cc2C(c2cccc(S(=O)(=O)NCCOCCOCCOCCNC(=O)NCCCCNC(=O)NCCOCCOCCOCCNS(=O)(=O)c3cccc(C4CN(C)Cc5c(Cl)cc(Cl)cc54)c3)c2)C1 (stereo not given)	< 100 nM
CN1Cc2c(Cl)cc(Cl)cc2C(c2cccc(S(=O)(=O)NCCOCCOCCOCCNC(=O)c3ccc(C(=O)NCCOCCOCCOCCNS(=O)(=O)c4cccc(C5CN(C)Cc6c(Cl)cc(Cl)cc65)c4)cc3)c2)C1 (stereo not given)	< 100 nM
CN1Cc2c(Cl)cc(Cl)cc2C(c2cccc(S(=O)(=O)NCCOCCOCCOCCNC(=O)Nc3ccc(NC(=O)NCCOCCOCCOCCNS(=O)(=O)c4cccc(C5CN(C)Cc6c(Cl)cc(Cl)cc65)c4)cc3)c2)C1 (stereo not given)	in the range around 3160 nM
CN1Cc2c(Cl)cc(Cl)cc2C(c2cccc(S(=O)(=O)NCCOCCOCCOCCNC(=O)[C@@H](O)[C@H](O)C(=O)NCCOCCOCCOCCNS(=O)(=O)c3cccc(C4CN(C)Cc5c(Cl)cc(Cl)cc54)c3)c2)C1 (stereo not given in full)	< 100 nM
O=C(CNCc1ccc(Cl)cc1Cl)c1cccc([N+](=O)[O-])c1	< 10000 nM
CN1Cc2c(Cl)cc(Cl)cc2C(c2cccc(S(=O)(=O)NCCOCCOCCOCCn3cc(COCc4cn(CCOCCOCCOCCNS(=O)(=O)c5cccc(C6CN(C)Cc7c(Cl)cc(Cl)cc76)c5)nn4)nn3)c2)C1 (stereo not given)	< 100 nM
CN1Cc2c(Cl)cc(Cl)cc2C(c2cccc(S(=O)(=O)NCCOCCOCCOCCNS(=O)(=O)c3cccc(S(=O)(=O)NCCOCCOCCOCCNS(=O)(=O)c4cccc(C5CN(C)Cc6c(Cl)cc(Cl)cc65)c4)c3)c2)C1 (stereo not given)	in the range around 3160 nM
CN1Cc2c(Cl)cc(Cl)cc2[C@H](c2ccc(S(=O)(=O)NCCOCCOCCOCCNC(=O)NCCCCNC(=O)NCCOCCOCCOCCNS(=O)(=O)c3ccc([C@@H]4CN(C)Cc5c(Cl)cc(Cl)cc54)cc3)cc2)C1 (single isomer, unassigned)	< 100 nM
CN1Cc2c(Cl)cc(Cl)cc2[C@H](c2ccc(S(=O)(=O)NCCOCCOCCOCCNC(=O)NCCOCCOCCOCCNS(=O)(=O)c3ccc([C@@H]4CN(C)Cc5c(Cl)cc(Cl)cc54)cc3)cc2)C1 (single isomer, unassigned)	< 100 nM
CN1Cc2c(Cl)cc(Cl)cc2[C@H](c2cccc(S(=O)(=O)NCCOCCOCCNC(=O)Nc3ccc(NC(=O)NCCOCCOCCNS(=O)(=O)c4cccc([C@@H]5CN(C)Cc6c(Cl)cc(Cl)cc65)c4)cc3)c2)C1 (single isomer, unassigned)	< 100 nM
CN1Cc2c(Cl)cc(Cl)cc2[C@H](c2ccc(S(=O)(=O)NCCOCCOCCNC(=O)COCC(=O)NCCOCCOCCNS(=O)(=O)c3ccc([C@@H]4CN(C)Cc5c(Cl)cc(Cl)cc54)cc3)cc2)C1 (single isomer, unassigned)	< 100 nM
